For this test, the target named is GzmB (Homo sapiens, UniProt P10144). The test can be described thus: Inhibition of fibronectin cleavage by GzmB. In kind it is biochemical. The following applies: 20 nM granzyme B, 30° C.; for inhibition at 0.62 µM: 0.62 uM inhibitor, read-out: Percent Inhibition at Inhibitor Concentration 0.62 uM; for inhibition at 5.56 µM: 5.56 uM inhibitor, read-out: Percent Inhibition at Inhibitor Concentration 5.56 uM; for inhibition at 50 µM: 50 uM inhibitor, read-out: Percent Inhibition at Inhibitor Concentration 50 uM. The method, then: Black, 96 well high-binding assay plates (Griener Bio-one) were treated overnight at 4° C. with 40 uL of 8 ug/mL Hilyte Fluor 488 labeled Fibronectin (Cytoskeleton, Inc). After fibronectin coating, plates were washed 3 times in buffer (20 mM Tris-HCl, pH 7.4, 20 mM NaCl) then once with granzyme B assay buffer (50 mM HEPES, pH 7.5, 0.1% CHAPS). After washing, 50 uL of granzyme B assay buffer was added to each fibronectin-coated well. In a separate non-binding 96 well assay plate 5 uL of 20× inhibitor serial dilution stocks were added to 45 uL of 2.22×GzmB mix to establish inhibition (enzyme/inhibitor mixes were all prepared in granzyme B assay buffer and were incubated first at room temperature for 20 minutes, then at 30° C. for another 10 minutes). After incubation, 50 uL of this 2× enzyme/inhibitor mix was added to the corresponding coated well to initiate fibronectin cleavage (20 nM final granzyme B concentration, 8-point inhibitor dilution series starting at 50 uM). The assay was conducted at 30° C. in the TECAN plate reader (TECAN INFINITE® M1000 Pro), which was programmed to monitor the kinetic fluorescence polarization signal (filter set Ex/Em 470 nm/527 nm) with readings taken every minute, for 1 hour. Proteolytic activity was evaluated as the rate of fluorescence enhancement in the parallel emission over the linear range of the reaction. % Inhibition values were calculated from assay controls and the resulting date is shown in Table 6.

We go through 3 compounds from US9969770B2, “Proline compounds as Granzyme B inhibitors” (viDA Therapeutics Inc., priority 2014, dated 2018).

Chain of GzmB (P10144 21-247): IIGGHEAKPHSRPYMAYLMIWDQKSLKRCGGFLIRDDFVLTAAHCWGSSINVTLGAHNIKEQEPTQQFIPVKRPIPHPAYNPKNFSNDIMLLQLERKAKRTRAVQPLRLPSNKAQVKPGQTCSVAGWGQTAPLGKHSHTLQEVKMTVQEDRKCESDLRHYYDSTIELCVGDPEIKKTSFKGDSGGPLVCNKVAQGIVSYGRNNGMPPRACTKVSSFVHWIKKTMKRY

For the compound `CC[C@H](C)[C@H](NC(=O)Cc1ccccc1)C(=O)NCC(=O)N1C[C@H](C2CCCCC2)C[C@H]1C(=O)NCc1nn[nH]n1` [Compound C2, (2S,4S)—N-((2H-tetrazol-5-yl)methyl)-4-cyclohexyl-1-(2-((2S,3S)-3-methyl-2-(2-phenylacetamido)pentanamido)acetyl)pyrrolidine-2-carboxamide], the inhibition at 0.62 µM is 40%, the inhibition at 5.56 µM was determined as 76% and the inhibition at 50 µM was 84%.

As for `O=C(O)CCC(=O)N[C@H](C(=O)NCC(=O)N1C[C@H](C2CCCCC2)C[C@H]1C(=O)NCc1nn[nH]n1)C1CCCC1` [Compound C5, 4-(((S)-2-((2-((2S,4S)-2-(((2H-tetrazol-5-yl)methyl)carbamoyl)-4-cyclohexylpyrrolidin-1-yl)-2-oxoethyl)amino)-1-cyclopentyl-2-oxoethyl)amino)-4-oxobutanoic acid], the inhibition at 0.62 µM worked out at 35%, the inhibition at 5.56 µM was 70% and the inhibition at 50 µM stood at 86%.

In the case of `CC[C@H](C)[C@H](NC(=O)CCC(=O)O)C(=O)NCC(=O)N1C[C@H](Sc2ccccc2)C[C@H]1C(=O)NCc1nn[nH]n1` [Compound C13, 4-(((2S,3S)-1-((2-((2S,4R)-2-(((2H-tetrazol-5-yl)methyl)carbamoyl)-4-(phenylthio)pyrrolidin-1-yl)-2-oxoethyl)amino)-3-methyl-1-oxopentan-2-yl)amino)-4-oxobutanoic acid], the inhibition at 0.62 µM is 28%, the inhibition at 5.56 µM was determined as 58% and the inhibition at 50 µM is 81%.
